Patent publication US10507193B2, “Ultra low dose doxepin and methods of using the same to treat sleep disorders” (Pernix Sleep, Inc., priority 2006, dated 2019)

Columns and labels:
Format in all cases: in vivo, human
[1] = system: patient suffering from transient or short term insomnia; test: Patient with transient or short term insomnia prescribed ultra low dose doxepin prior to bedtime
Source text: A patient suffers from transient or short term insomnia. The patient is otherwise healthy with normal affect with no depression, anxiety or substance overuse. The patient is prescribed doxepin in a daily dosage of 0.4 milligrams, prior to bedtime. […] A patient suffers from transient or short term insomnia. The patient is otherwise healthy with normal affect with no depression, anxiety or substance overuse. The patient is prescribed doxepin in a daily dosage of 0.08 milligrams, prior to bedtime. […] A patient suffers from transient or short term insomnia. The patient is otherwise healthy with normal affect with no depression, anxiety or substance overuse. The patient is prescribed doxepin in a daily dosage of 0.009 milligrams, prior to bedtime. […] A patient suffers from transient or short term insomnia. The patient is otherwise healthy with normal affect with no depression, anxiety or substance overuse. The patient is prescribed doxepin in a daily dosage of 0.0005 milligrams prior to bedtime. […] A patient suffers from transient or short term insomnia. The patient also suffers from depression. The patient is prescribed doxepin in a daily dosage of 0.3 milligrams, prior to bedtime. […] A patient suffers from transient or short term insomnia. The patient also suffers from depression. The patient is prescribed doxepin in a daily dosage of 0.1 milligrams, prior to bedtime. […] A patient suffers from transient or short term insomnia. The patient also suffers from depression. The patient is prescribed doxepin in a daily dosage of 0.006 milligrams, prior to bedtime. […] A patient suffers from transient or short term insomnia. The patient is otherwise healthy with normal affect with no depression, anxiety or substance overuse. The patient is prescribed doxepin in a daily dosage of 0.008 milligrams, prior to bedtime. […] A patient suffers from transient or short term insomnia. The patient also suffers from depression. The patient is prescribed doxepin in a daily dosage of 0.001 milligrams, prior to bedtime. […] A patient suffers from transient or short term insomnia. The patient also suffers from depression. The patient is prescribed doxepin in a daily dosage of 0.0003 milligrams prior to bedtime.

[2] = system: patient suffering from chronic insomnia; test: Patient with chronic insomnia prescribed ultra low dose doxepin prior to bedtime
Source text: A patient suffers from chronic insomnia. The patient is otherwise healthy with normal affect with no depression, anxiety or substance overuse. The patient is prescribed doxepin in a daily dosage of 0.4 milligrams prior to bedtime. […] A patient suffers from chronic insomnia. The patient is otherwise healthy with normal affect with no depression, anxiety or substance overuse. The patient is prescribed doxepin in a daily dosage of 0.2 milligrams prior to bedtime. […] A patient suffers from chronic insomnia. The patient is otherwise healthy with normal affect with no depression, anxiety or substance overuse. The patient is prescribed doxepin in a daily dosage of 0.02 milligrams prior to bedtime. […] A patient suffers from chronic insomnia. The patient is otherwise healthy with normal affect with no depression, anxiety or substance overuse. The patient is prescribed doxepin in a daily dosage of 0.007 milligrams prior to bedtime. […] A patient suffers from chronic insomnia. The patient is otherwise healthy with normal affect with no depression, anxiety or substance overuse. The patient is prescribed doxepin in a daily dosage of 0.009 milligrams prior to bedtime. […] A patient suffers from chronic insomnia. The patient is otherwise healthy with normal affect with no depression, anxiety or substance overuse. The patient is prescribed doxepin in a daily dosage of 0.0002 milligrams prior to bedtime. […] A patient suffers from chronic insomnia. The patient also suffers from depression. The patient is prescribed doxepin in a daily dosage of 0.5 milligram prior to bedtime. […] A patient suffers from chronic insomnia. The patient also suffers from depression. The patient is prescribed doxepin in a daily dosage of 0.03 milligrams prior to bedtime. […] A patient suffers from chronic insomnia. The patient also suffers from depression. The patient is prescribed doxepin in a daily dosage of 0.05 milligrams prior to bedtime. […] A patient suffers from chronic insomnia. The patient also suffers from depression. The patient is prescribed doxepin in a daily dosage of 0.004 milligrams prior to bedtime. […] A patient suffers from chronic insomnia. The patient also suffers from depression. The patient is prescribed doxepin in a daily dosage of 0.0001 milligrams prior to bedtime. […] A patient suffers from chronic insomnia. The patient also suffers from depression. The patient is prescribed doxepin in a daily dosage of 0.0009 milligrams prior to bedtime.

[3] = system: patient suffering from a sleep disorder; test: Patient with a sleep disorder prescribed ultra low dose doxepin, salt or prodrug prior to bedtime; details: daily dosage 0.1 milligram prior to bedtime
Source text: A patient suffers from a sleep disorder. The patient is prescribed doxepin in a daily dosage of 0.1 milligram prior to bedtime. […] A patient suffers from a sleep disorder. The patient is prescribed a pharmaceutically acceptable salt of doxepin in a daily dosage of 0.3 milligrams prior to bedtime. […] A patient suffers from a sleep disorder. The patient is prescribed a pharmaceutically acceptable salt of doxepin in a daily dosage of 0.009 milligrams prior to bedtime. […] A patient suffers from a sleep disorder. The patient is prescribed a pharmaceutically acceptable salt of doxepin in a daily dosage of 0.006 milligrams prior to bedtime. […] A patient suffers from a sleep disorder. The patient is prescribed a pharmaceutically acceptable salt of doxepin in a daily dosage of 0.0007 milligrams prior to bedtime. […] A patient suffers from a sleep disorder. The patient is prescribed a prodrug of doxepin in a daily dosage of 0.1 milligrams prior to bedtime. […] A patient suffers from a sleep disorder. The patient is prescribed a prodrug of doxepin in a daily dosage of 0.0006 milligrams prior to bedtime. […] A patient suffers from a sleep disorder. The patient is prescribed a prodrug of doxepin in a daily dosage of 0.05 milligrams prior to bedtime. […] A patient suffers from a sleep disorder. The patient is prescribed a prodrug of doxepin in a daily dosage of 0.004 milligrams prior to bedtime. […]

[4] = otherwise healthy, no depression, daily dosage 0.009 milligrams prior to bedtime
[5] = otherwise healthy, no depression, daily dosage 0.4 milligrams prior to bedtime

Measured: relief of insomnia

CN(C)CCC=C1c2ccccc2COc2ccccc21 [doxepin, 11-(3-dimethylaminopropylidene)-6,11-dihydrodibenzo-[b,e]-oxepine]
relieves the insomnia: [1]; otherwise healthy, no depression, daily dosage 0.0005 milligrams prior to bedtime | [1]; otherwise healthy, no depression, daily dosage 0.008 milligrams prior to bedtime | [1]; [4] | [1]; otherwise healthy, no depression, daily dosage 0.08 milligrams prior to bedtime | [1]; [5] | [1]; patient also suffers from depression, daily dosage 0.0003 milligrams prior to bedtime | [1]; patient also suffers from depression, daily dosage 0.001 milligrams prior to bedtime | [1]; patient also suffers from depression, daily dosage 0.006 milligrams prior to bedtime | [1]; patient also suffers from depression, daily dosage 0.1 milligrams prior to bedtime | [1]; patient also suffers from depression, daily dosage 0.3 milligrams prior to bedtime | [2]; otherwise healthy, no depression, daily dosage 0.0002 milligrams prior to bedtime | [2]; otherwise healthy, no depression, daily dosage 0.007 milligrams prior to bedtime | [2]; [4] | [2]; otherwise healthy, no depression, daily dosage 0.02 milligrams prior to bedtime | [2]; otherwise healthy, no depression, daily dosage 0.2 milligrams prior to bedtime | [2]; [5] | [2]; patient also suffers from depression, daily dosage 0.0001 milligrams prior to bedtime | [2]; patient also suffers from depression, daily dosage 0.0009 milligrams prior to bedtime | [2]; patient also suffers from depression, daily dosage 0.004 milligrams prior to bedtime | [2]; patient also suffers from depression, daily dosage 0.03 milligrams prior to bedtime | [2]; patient also suffers from depression, daily dosage 0.05 milligrams prior to bedtime | [2]; patient also suffers from depression, daily dosage 0.5 milligram prior to bedtime | [3]
